In ChEMBL document CHEMBL1201862, “PubChem BioAssay data set” (2004):
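Cultured in 96-well plates, cells were exposed to test compound for 48 hours across five concentrations. GI50 marks 50% less growth.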 The source made the active and inactive calls. Cut-off read from the data, not from the text of the source: active = GI50 up to about 1.1 µM and inactive = higher. Non-standard residues stand in square brackets, D forms with d. Residues, ends and D or L forms follow the SMILES beside them. Ava = NCCCCC(=O)O; Mpa = O=C(O)CCS

Legend:
Assay in all cases: NCI tumour cell line growth inhibition, 48 h
COLO 205 = system: COLO 205
RXF 393 = system: RXF 393
UACC-62 = system: UACC-62
HCC 2998 = system: HCC 2998
LOX IMVI = system: LOX IMVI
T47D = system: T47D
DU-145 = system: DU-145
MDA-MB-231 = system: MDA-MB-231
BT-549 = system: BT-549
U-251 = system: U-251
NCI-H226 = system: NCI-H226
MDA-MB-435 = system: MDA-MB-435
SNB-19 = system: SNB-19
CAKI-1 = system: CAKI-1
NCI/ADR-RES = system: NCI/ADR-RES
OVCAR-5 = system: OVCAR-5
SK-MEL-2 = system: SK-MEL-2
HOP-62 = system: HOP-62
K562 = system: K562
SR = system: SR

Measured: GI50

N#Cc1c(=O)c2cccnc2n2c1[nH]c1ccccc12
inactive: COLO 205 > 100 µM | RXF 393 74.1 µM | UACC-62 > 100 µM | HCC 2998 > 100 µM | LOX IMVI > 100 µM | T47D > 100 µM | DU-145 > 100 µM | MDA-MB-231 27 µM | BT-549 57.3 µM | U-251 38.6 µM | NCI-H226 66.5 µM | MDA-MB-435 > 100 µM | SNB-19 57.7 µM | CAKI-1 > 100 µM | NCI/ADR-RES 64.6 µM | OVCAR-5 > 100 µM | SK-MEL-2 > 100 µM | HOP-62 41.4 µM | K562 > 100 µM | SR > 100 µM

CC1=C2C3=C(C)C(=O)C(C)(C)CC[C@@]3(C)[C@]2(C)CCC(C)(C)C1=O
inactive: COLO 205 > 100 µM | RXF 393 > 100 µM | UACC-62 > 100 µM | LOX IMVI > 100 µM | T47D > 100 µM | DU-145 > 100 µM | MDA-MB-231 > 100 µM | BT-549 > 100 µM | U-251 > 100 µM | NCI-H226 > 100 µM | MDA-MB-435 > 100 µM | SNB-19 > 100 µM | CAKI-1 > 100 µM | NCI/ADR-RES > 100 µM | OVCAR-5 > 100 µM | HOP-62 > 100 µM | K562 > 100 µM | SR > 100 µM

CCOC(=O)C1CCCN1C(=O)c1ccccc1Cl (centres undefined)
inactive: RXF 393 > 100 µM | UACC-62 22 µM | HCC 2998 > 100 µM | LOX IMVI > 100 µM | T47D > 100 µM | DU-145 > 100 µM | MDA-MB-231 > 100 µM | BT-549 > 100 µM | U-251 > 100 µM | NCI-H226 > 100 µM | MDA-MB-435 > 100 µM | SNB-19 > 100 µM | CAKI-1 > 100 µM | NCI/ADR-RES > 100 µM | OVCAR-5 > 100 µM | HOP-62 > 100 µM | K562 > 100 µM | SR > 100 µM

c1ccc(-c2cs[s+]c2)cc1
inactive: COLO 205 > 100 µM | RXF 393 > 100 µM | UACC-62 > 100 µM | HCC 2998 > 100 µM | LOX IMVI > 100 µM | T47D > 100 µM | DU-145 > 100 µM | MDA-MB-231 > 100 µM | BT-549 > 100 µM | U-251 > 100 µM | NCI-H226 > 100 µM | MDA-MB-435 > 100 µM | SNB-19 > 100 µM | CAKI-1 > 100 µM | NCI/ADR-RES > 100 µM | OVCAR-5 > 100 µM | HOP-62 > 100 µM | K562 34.2 µM | SR 52.2 µM

Oc1c2c(c(O)c3ccccc13)C1(N=N2)c2ccccc2Oc2ccccc21
inactive: COLO 205 13 µM | RXF 393 1.98 µM | UACC-62 11.1 µM | HCC 2998 18.7 µM | LOX IMVI 2.38 µM | T47D 7.55 µM | DU-145 8.73 µM | MDA-MB-231 13.9 µM | BT-549 10.7 µM | U-251 3.9 µM | MDA-MB-435 4.38 µM | SNB-19 16.2 µM | CAKI-1 10.3 µM | NCI/ADR-RES 9.57 µM | OVCAR-5 10.2 µM | SK-MEL-2 12 µM | HOP-62 16 µM | K562 9.91 µM | SR 3.4 µM

COC(=O)c1scc(N)c1-n1ccc(=O)[nH]c1=O
inactive: COLO 205 > 100 µM | RXF 393 > 100 µM | UACC-62 > 100 µM | HCC 2998 > 100 µM | LOX IMVI > 100 µM | T47D > 100 µM | DU-145 > 100 µM | MDA-MB-231 > 100 µM | BT-549 > 100 µM | U-251 > 100 µM | NCI-H226 > 100 µM | MDA-MB-435 > 100 µM | SNB-19 > 100 µM | CAKI-1 > 100 µM | NCI/ADR-RES > 100 µM | OVCAR-5 > 100 µM | SK-MEL-2 > 100 µM | K562 > 100 µM | SR > 100 µM

O=c1[nH]c(=O)n(C2CC(O)C(CO)O2)cc1OCC1CCCCC1 (centres undefined)
inactive: COLO 205 > 100 µM | RXF 393 > 100 µM | UACC-62 > 100 µM | LOX IMVI > 100 µM | T47D > 100 µM | DU-145 > 100 µM | MDA-MB-231 > 100 µM | BT-549 > 100 µM | U-251 > 100 µM | NCI-H226 > 100 µM | MDA-MB-435 > 100 µM | SNB-19 > 100 µM | CAKI-1 > 100 µM | NCI/ADR-RES > 100 µM | OVCAR-5 > 100 µM | HOP-62 > 100 µM | K562 > 100 µM | SR > 100 µM

COc1ccc(CCCCl)c(C2=NCCc3cc(OC)c(OC)cc32)c1
inactive: COLO 205 25.7 µM | RXF 393 54.7 µM | UACC-62 32.8 µM | HCC 2998 48.4 µM | T47D 46.1 µM | DU-145 > 100 µM | MDA-MB-231 69.3 µM | BT-549 37.8 µM | U-251 23.6 µM | NCI-H226 27.9 µM | MDA-MB-435 35.6 µM | SNB-19 30 µM | CAKI-1 39.7 µM | NCI/ADR-RES 46.8 µM | OVCAR-5 > 100 µM | SK-MEL-2 39.7 µM | HOP-62 91.2 µM | K562 28.3 µM | SR > 100 µM

CC(Nc1cc(=O)n(C)c(=O)[nH]1)c1ccccc1 (centres undefined)
inactive: COLO 205 > 100 µM | RXF 393 > 100 µM | UACC-62 > 100 µM | HCC 2998 > 100 µM | LOX IMVI > 100 µM | T47D > 100 µM | DU-145 > 100 µM | MDA-MB-231 > 100 µM | BT-549 > 100 µM | U-251 > 100 µM | MDA-MB-435 > 100 µM | SNB-19 > 100 µM | CAKI-1 > 100 µM | NCI/ADR-RES > 100 µM | OVCAR-5 > 100 µM | SK-MEL-2 > 100 µM | HOP-62 > 100 µM | K562 > 100 µM | SR > 100 µM

O=C(N1CCOCC1)C1(c2ccccc2)CCNCC1
inactive: COLO 205 > 100 µM | RXF 393 > 100 µM | UACC-62 > 100 µM | LOX IMVI > 100 µM | T47D > 100 µM | DU-145 > 100 µM | MDA-MB-231 > 100 µM | BT-549 > 100 µM | U-251 > 100 µM | NCI-H226 > 100 µM | MDA-MB-435 > 100 µM | SNB-19 > 100 µM | CAKI-1 > 100 µM | NCI/ADR-RES > 100 µM | OVCAR-5 > 100 µM | SK-MEL-2 > 100 µM | HOP-62 > 100 µM | K562 > 100 µM | SR > 100 µM

Cc1nn(C(=O)c2ccncc2)c2c1C(c1ccccc1[N+](=O)[O-])SC(=N)N2 (centres undefined)
inactive: COLO 205 > 10 µM | RXF 393 > 10 µM | UACC-62 > 10 µM | HCC 2998 > 10 µM | LOX IMVI > 10 µM | T47D > 10 µM | DU-145 > 10 µM | MDA-MB-231 > 10 µM | BT-549 > 10 µM | NCI-H226 > 10 µM | MDA-MB-435 > 10 µM | SNB-19 > 10 µM | CAKI-1 > 10 µM | NCI/ADR-RES > 10 µM | OVCAR-5 > 10 µM | SK-MEL-2 > 10 µM | HOP-62 > 10 µM | K562 > 10 µM | SR > 10 µM

CCCCCC/C=C\CCCCCCCCCc1cccc(OC)c1O
inactive: COLO 205 > 100 µM | RXF 393 67.6 µM | UACC-62 > 100 µM | LOX IMVI > 100 µM | T47D > 100 µM | DU-145 > 100 µM | MDA-MB-231 > 100 µM | BT-549 > 100 µM | U-251 > 100 µM | NCI-H226 > 100 µM | MDA-MB-435 > 100 µM | SNB-19 > 100 µM | CAKI-1 > 100 µM | NCI/ADR-RES 41.2 µM | OVCAR-5 > 100 µM | SK-MEL-2 > 100 µM | HOP-62 > 100 µM | K562 > 100 µM | SR > 10 µM

CC(NC(=O)CCS)C(=O)NC(C)C(=O)NC(Cc1c[nH]c2ccccc12)C(=O)NC(Cc1c[nH]cn1)C(=O)NC(CO)C(=O)NC(Cc1c[nH]c2ccccc12)C(=O)NCCCCC(=O)NC(C)C(=O)NC(CCC(N)=O)C(=O)NC(CCCCN)C(=O)NC(C)C(=O)NC(CCCNC(=N)N)C(=O)NC(CCCCN)C(N)=O (centres undefined) ([Mpa]AAWHSW[Ava]AQKARK-NH2; configuration not given here)
inactive: COLO 205 43.5 µM | RXF 393 > 100 µM | UACC-62 22.5 µM | LOX IMVI > 100 µM | T47D 23.9 µM | DU-145 87.9 µM | MDA-MB-231 > 100 µM | BT-549 > 100 µM | U-251 43.2 µM | NCI-H226 > 100 µM | MDA-MB-435 45.9 µM | SNB-19 > 100 µM | CAKI-1 44.2 µM | NCI/ADR-RES > 100 µM | OVCAR-5 > 100 µM | SK-MEL-2 > 100 µM | HOP-62 > 100 µM | K562 26.9 µM | SR 87.5 µM

C[C@@H]1[C@@H](c2ccccc2)O[B-](c2ccccc2)(c2ccccc2)[N+]1(C)C
inactive: COLO 205 33 µM | RXF 393 34.7 µM | UACC-62 > 100 µM | LOX IMVI > 100 µM | T47D 54.5 µM | DU-145 > 100 µM | MDA-MB-231 > 100 µM | BT-549 43.6 µM | U-251 > 100 µM | NCI-H226 41 µM | MDA-MB-435 98.6 µM | SNB-19 > 100 µM | CAKI-1 48.3 µM | NCI/ADR-RES > 100 µM | OVCAR-5 > 100 µM | SK-MEL-2 > 100 µM | HOP-62 > 100 µM | K562 33 µM | SR 53 µM
